Experiments:
Test in all cases: combination Emax (second highest fraction inhibited in the dose matrix, 72 h); higher = more inhibition; extreme values may be limits of the assay
[1] = tested on: HCC1395 (Breast Carcinoma)
Method in brief: (§1)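 Cell lines in DMEM/F12 or RPMI with 10% FBS were plated in 1536-well plates, held 24 hours at 37°C, 5% CO2, then given two-drug dose matrices for 72 hours (DMSO typically 0.2%). Viability was read by CellTiter-Glo 2.0 luminescence and scaled as inhibition from 0 (vehicle wells) to 1 (blank wells). Combination Emax is the second-highest inhibition in the matrix; Bliss excess is observed combination effect minus expected EA + EB − EA·EB, EA and EB being single-agent effects.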

[2] = tested on: AU565 (Breast Carcinoma)
Method in brief: as §1

[3] = tested on: SW620 (Colorectal Carcinoma)
Method in brief: as §1

[4] = tested on: CAL-27 (Oral Cavity Carcinoma)
Method in brief: as §1

[5] = tested on: LU-165 (Small Cell Lung Carcinoma)
Method in brief: as §1

[6] = tested on: NCI-H2228 (Lung Adenocarcinoma)
Method in brief: as §1

[7] = tested on: SK-HEP-1 (Hepatocellular Carcinoma)
Method in brief: as §1

[8] = tested on: EW-16 (Ewing's Sarcoma)
Method in brief: as §1

[9] = tested on: CA46 (Burkitt's Lymphoma)
Method in brief: as §1

[10] = tested on: DMS-53 (Small Cell Lung Carcinoma)
Method in brief: as §1

[11] = tested on: WM1552C (Melanoma)
Method in brief: as §1

[12] = tested on: NCI-H1703 (Squamous Cell Lung Carcinoma)
Method in brief: as §1

[13] = tested on: 769-P (Kidney Carcinoma)
Method in brief: as §1

[14] = tested on: KYSE-220 (Esophageal Squamous Cell Carcinoma)
Method in brief: as §1

[15] = tested on: KP-N-YN (Neuroblastoma)
Method in brief: as §1

[16] = tested on: KYSE-140 (Esophageal Squamous Cell Carcinoma)
Method in brief: as §1

[17] = tested on: PEO1 (Ovarian Carcinoma)
Method in brief: as §1

[18] = tested on: NCI-H716 (Colorectal Carcinoma)
Method in brief: as §1

[19] = tested on: A101D (Melanoma)
Method in brief: as §1

[20] = tested on: JVM-2 (B-Cell Non-Hodgkin's Lymphoma)
Method in brief: as §1

Row | SMILES | combination Emax [1] | combination Emax [2] | combination Emax [3] | combination Emax [4] | combination Emax [5] | combination Emax [6] | combination Emax [7] | combination Emax [8] | combination Emax [9] | combination Emax [10] | combination Emax [11] | combination Emax [12] | combination Emax [13] | combination Emax [14] | combination Emax [15] | combination Emax [16] | combination Emax [17] | combination Emax [18] | combination Emax [19] | combination Emax [20]
1 | CC(=O)Nc1cccc(-n2c(=O)n(C3CC3)c(=O)c3c(Nc4ccc(I)cc4F)n(C)c(=O)c(C)c32)c1 [Trametinib] + Cc1nc(-c2cn3c(n2)-c2ccc(-c4cnn(C(C)(C)C(N)=O)c4)cc2OCC3)n(C(C)C)n1 [Taselisib] (first compound max 1 µM, 7x7, partner max 10 µM) | 0.654 | 0.604 | 0.77 | 0.946 | 0.373 | 0.914 | 0.561 | 0.604 | 0.434 | 0.294 | 0.908 | 0.759 | 0.681 | 0.958 | 0.528 | 0.817 | 0.825 | 0.977 | 0.923 | 0.746
2 | Cc1c2c(nn1C)CSCc1cc(n(C)n1)CSc1cc(c3ccccc3c1)OCCCc1c(C(=O)O)n(C)c3c-2c(Cl)ccc13 [AZD5991] + CN(C)CCCOc1ccc(-c2ccc3ncc4c(c3c2)n(C2CCOCC2)c(=O)n4C)cn1 [AZD0156] (first compound max 1 µM, 7x7, partner max 1 µM) | 0.537 | 1 | 0.294 | 0.958 | 0.286 | 0.307 | 0.281 | 0.29 | 0.294 | 0.716 | 0.76 | 0.892 | 0.243 | 0.278 | 0.252 | 0.488 | 0.15 | 0.294 | 1 | 0.753
3 | CCc1c2c(nc3ccc(O)cc13)-c1cc3c(c(=O)n1C2)COC(=O)[C@]3(O)CC [SN-38] + CN(C)CCCOc1ccc(-c2ccc3ncc4c(c3c2)n(C2CCOCC2)c(=O)n4C)cn1 [AZD0156] (first compound max 0.3 µM, 7x7, partner max 1 µM) | 0.512 | 0.8 | 0.883 | 0.905 | 0.517 | 0.716 | 0.63 | 0.978 | 0.758 | 0.729 | 0.59 | 0.875 | 0.716 | 0.947 | 0.806 | 0.305 | 0.674 | 0.202 | 0.674 | 0.949
4 | COc1cccc(OCCCN)c1-c1cc(Nc2cnc(C#N)cn2)n[nH]1 [Prexasertib] + C[C@@H]1COCCN1C2=NC(=NC(=C2)C3(CC3)[S@](=N)(=O)C)C4=C5C=CNC5=NC=C4 [AZD6738] (first compound max 1 µM, 7x7, partner max 10 µM) | 0.86 | 0.633 | 0.744 | 0.504 | 0.565 | 0.643 | 0.462 | 0.736 | 0.599 | 0.272 | 0.743 | 0.97 | 0.837 | 0.939 | 1 | 0.959 | 0.489 | 0.616 | 0.773 | 0.949
5 | CC(=O)c1c(C)c2cnc(Nc3ccc(N4CCNCC4)cn3)nc2n(C2CCCC2)c1=O [Palbociclib] + Cc1c2c(nn1C)CSCc1cc(n(C)n1)CSc1cc(c3ccccc3c1)OCCCc1c(C(=O)O)n(C)c3c-2c(Cl)ccc13 [AZD5991] (first compound max 10 µM, 7x7, partner max 1 µM) | 0.419 | 0.998 | 0.466 | 0.914 | 0.167 | 0.247 | 0.848 | 0.415 | 0.304 | 0.263 | 0.638 | 0.815 | 0.786 | 0.305 | 0.387 | 0.301 | 0.329 | 0.356 | 0.588 | 0.704
6 | COc1cccc(OCCCN)c1-c1cc(Nc2cnc(C#N)cn2)n[nH]1 [Prexasertib] + CCc1c2c(nc3ccc(O)cc13)-c1cc3c(c(=O)n1C2)COC(=O)[C@]3(O)CC [SN-38] (first compound max 1 µM, 7x7, partner max 0.3 µM) | 0.898 | 0.949 | 0.975 | 0.948 | 0.642 | 0.821 | 0.761 | 0.984 | 0.837 | 0.878 | 0.833 | 0.971 | 0.789 | 0.96 | 0.985 | 0.945 | 0.71 | 0.726 | 0.899 | 0.985
7 | CN(C)CCCOc1ccc(-c2ccc3ncc4c(c3c2)n(C2CCOCC2)c(=O)n4C)cn1 [AZD0156] + C=CCn1c(=O)c2cnc(Nc3ccc(N4CCN(C)CC4)cc3)nc2n1-c1cccc(C(C)(C)O)n1 [AZD1775] (first compound max 1 µM, partner max 1 µM) | 0.682 | 0.454 | 0.495 | 0.376 | 0.38 | 0.5 | 0.469 | 0.307 | 0.636 | 0.148 | 0.476 | 0.967 | 0.766 | 0.812 | 0.95 | 0.844 | 0.341 | 0.482 | 0.495 | 0.888
8 | Cn1cnc2c(F)c(Nc3ccc(Br)cc3Cl)c(C(=O)NOCCO)cc21 [Selumetinib] + CC(C)n1c(=O)n(C)c2cnc3cc(F)c(-c4ccc(OCCCN5CCCCC5)nc4)cc3c21 [AZD1390] (first compound max 10 µM, 7x7, partner max 0.3 µM) | 0.192 | 0.146 | 0.615 | 0.611 | 0.213 | 0.203 | 0.193 | 0.134 | 0.306 | 0.132 | 0.384 | 0.122 | 0.294 | 0.405 | 0.398 | 0.191 | 0.266 | 0.452 | 0.528 | 0.352
9 | CC1(C)CCC(CN2CCN(c3ccc(C(=O)NS(=O)(=O)c4ccc(NCC5CCOCC5)c([N+](=O)[O-])c4)c(Oc4cnc5[nH]ccc5c4)c3)CC2)=C(c2ccc(Cl)cc2)C1 [Venetoclax] + Cn1cnc2c(F)c(Nc3ccc(Br)cc3Cl)c(C(=O)NOCCO)cc21 [Selumetinib] (first compound max 1 µM, 7x7, partner max 3 µM) | 0.693 | 0.201 | 0.575 | 0.466 | 0.142 | 0.185 | 0.234 | 0.127 | 0.403 | 0.367 | 0.488 | 0.178 | 0.292 | 0.31 | 0.632 | 0.233 | 0.19 | 0.366 | 0.568 | 0.392
10 | CCN(CCO)CCCOc1ccc2c(Nc3cc(CC(=O)Nc4cccc(F)c4)[nH]n3)ncnc2c1 [AZD2811] + C=CCn1c(=O)c2cnc(Nc3ccc(N4CCN(C)CC4)cc3)nc2n1-c1cccc(C(C)(C)O)n1 [AZD1775] (first compound max 1 µM, partner max 1 µM) | 0.682 | 0.449 | 0.461 | 0.511 | 0.333 | 0.598 | 0.355 | 0.41 | 0.489 | 0.111 | 0.424 | 0.94 | 0.632 | 0.804 | 0.913 | 0.826 | 0.278 | 0.562 | 0.427 | 0.91
11 | CC1(C)CCC(CN2CCN(c3ccc(C(=O)NS(=O)(=O)c4ccc(NCC5CCOCC5)c([N+](=O)[O-])c4)c(Oc4cnc5[nH]ccc5c4)c3)CC2)=C(c2ccc(Cl)cc2)C1 [Venetoclax] + C[C@@H]1COCCN1C2=NC(=NC(=C2)C3(CC3)[S@](=N)(=O)C)C4=C5C=CNC5=NC=C4 [AZD6738] (first compound max 1 µM, 7x7, partner max 10 µM) | 0.771 | 0.382 | 0.47 | 0.425 | 0.441 | 0.476 | 0.28 | 0.792 | 0.506 | 0.809 | 0.617 | 0.883 | 0.815 | 0.875 | 0.999 | 0.863 | 0.48 | 0.436 | 0.91 | 0.892
12 | COc1cccc(OCCCN)c1-c1cc(Nc2cnc(C#N)cn2)n[nH]1 [Prexasertib] + C=CCn1c(=O)c2cnc(Nc3ccc(N4CCN(C)CC4)cc3)nc2n1-c1cccc(C(C)(C)O)n1 [AZD1775] (first compound max 1 µM, partner max 1 µM) | 0.903 | 0.891 | 0.853 | 0.777 | 0.604 | 0.719 | 0.65 | 0.75 | 0.757 | 0.473 | 0.885 | 0.985 | 0.867 | 0.973 | 0.994 | 0.959 | 0.478 | 0.664 | 0.832 | 0.942
13 | CN(C)CCCOc1ccc(-c2ccc3ncc4c(c3c2)n(C2CCOCC2)c(=O)n4C)cn1 [AZD0156] + CCN(CCO)CCCOc1ccc2c(Nc3cc(CC(=O)Nc4cccc(F)c4)[nH]n3)ncnc2c1 [AZD2811] (first compound max 1 µM, 7x7, partner max 1 µM) | 0.193 | 0.208 | 0.158 | 0.546 | 0.114 | 0.384 | 0.255 | 0.423 | 0.291 | 0.0911 | 0.242 | 0.506 | 0.0806 | 0.142 | 0.486 | 0.288 | 0.157 | 0.45 | 0.203 | 0.719

— the supplement of paper PMC11061612
